From article PMC10165273, “Itch receptor MRGPRX4 interacts with the receptor activity–modifying proteins” (The Journal of Biological Chemistry, 2023)
Read-outs that look alike come from different tables or passages of the source.

Target: T1, MRGPRX4 (Homo sapiens, UniProt Q96LA9)
T1 construct: expressed in transfected cells; host or cells: HEK293T
Experiment: IP1 accumulation HTRF assay, MRGPRX4
Format: cell-based
Design: key to IP1 Basal / IP1 accumulation with YM (Figure 1c) / response to agonist, MRGPRX4 / IP1 accumulation: % IP1: unstimulated mock-transfected = 0%, fully stimulated MRGPRX4 = 100%
Settings: for IP1 accumulation (normalized): Supplementary Figure 5d-g

[1] = Tet-On MRGPRX4, over 1pg/cell Normalized, Dox 3300 ng/mL (Fig. S5C)

T1 sequence (Q96LA9 whole entry): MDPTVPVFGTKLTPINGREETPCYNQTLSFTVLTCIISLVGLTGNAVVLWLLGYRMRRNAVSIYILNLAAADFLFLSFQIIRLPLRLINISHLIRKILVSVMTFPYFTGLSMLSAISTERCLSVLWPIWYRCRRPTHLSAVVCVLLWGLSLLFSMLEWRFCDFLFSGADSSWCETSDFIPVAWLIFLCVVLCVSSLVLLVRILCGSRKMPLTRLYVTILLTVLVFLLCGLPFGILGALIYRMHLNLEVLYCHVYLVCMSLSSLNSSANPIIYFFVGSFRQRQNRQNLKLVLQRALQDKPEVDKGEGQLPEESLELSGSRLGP

## CC(C)[C@H]1CC[C@H](C(=O)N[C@H](Cc2ccccc2)C(=O)O)CC1 [Nateglinide]
Tet-On MRGPRX4 1pg/cell, Dox 3300 ng/mL (Fig. S5B), read-out: IP1 EC50
  EC50: 9.26 µM
Tet-On MRGPRX4 1pg/cell, Dox 3300 ng/mL (Fig. S5B), read-out: IP1 Emax
  Emax: 34.4%
Tet-On MRGPRX4 1pg/cell, Dox 3300 ng/mL (Fig. S5B), read-out: IP1 span
  Emax: 35.4%
Tet-On MRGPRX4 1pg/cell, No dox (Fig. S5B)
  IP1 Basal: -1.503
Tet-On MRGPRX4 1pg/cell, No dox (Fig. S5B), read-out: IP1 Emax
  Emax: 25%
Tet-On MRGPRX4 1pg/cell, No dox (Fig. S5B), read-out: IP1 span
  Emax: 26.5%
Tet-On MRGPRX4 2pg/cell, Dox 13 ng/mL (Fig. S5A)
  IP1 Basal: 6.149
Tet-On MRGPRX4 2pg/cell, Dox 13 ng/mL (Fig. S5A), read-out: IP1 EC50
  EC50: 7.35 µM
Tet-On MRGPRX4 2pg/cell, Dox 13 ng/mL (Fig. S5A), read-out: IP1 Emax
  Emax: 84.9%
Tet-On MRGPRX4 2pg/cell, Dox 13 ng/mL (Fig. S5A), read-out: IP1 logEC50 (converted)
  EC50: 7.35 µM
Tet-On MRGPRX4 2pg/cell, Dox 13 ng/mL (Fig. S5A), read-out: IP1 span
  Emax: 78.8%
Tet-On MRGPRX4 2pg/cell, Dox 40 ng/mL (Fig. S5A)
  IP1 Basal: 7.421
Tet-On MRGPRX4 2pg/cell, Dox 40 ng/mL (Fig. S5A), read-out: IP1 EC50
  EC50: 6.07 µM
Tet-On MRGPRX4 2pg/cell, Dox 40 ng/mL (Fig. S5A), read-out: IP1 Emax
  Emax: 87.5%
Tet-On MRGPRX4 2pg/cell, Dox 40 ng/mL (Fig. S5A), read-out: IP1 span
  Emax: 80.1%
Tet-On MRGPRX4 2pg/cell, Dox 1100 ng/mL (Fig. S5A)
  IP1 Basal: 11.03
Tet-On MRGPRX4 2pg/cell, Dox 1100 ng/mL (Fig. S5A), read-out: IP1 Emax
  Emax: 101%
Tet-On MRGPRX4 2pg/cell, Dox 1100 ng/mL (Fig. S5A), read-out: IP1 logEC50 (converted)
  EC50: 5.41 µM
Tet-On MRGPRX4 2pg/cell, Dox 1100 ng/mL (Fig. S5A), read-out: IP1 span
  Emax: 90.4%
Tet-On MRGPRX4 2pg/cell, Dox 3300 ng/mL (Fig. S5A)
  IP1 Basal: 10.81
Tet-On MRGPRX4 2pg/cell, Dox 3300 ng/mL (Fig. S5A), read-out: IP1 EC50
  EC50: 6.36 µM
Tet-On MRGPRX4 2pg/cell, Dox 3300 ng/mL (Fig. S5A), read-out: IP1 Emax
  Emax: 106%
Tet-On MRGPRX4 2pg/cell, Dox 3300 ng/mL (Fig. S5A), read-out: IP1 span
  Emax: 95.6%
Tet-On MRGPRX4 2pg/cell, Dox […] (Fig. S5A)
  IP1 logEC50: -5.040
Tet-On MRGPRX4 2pg/cell, No dox (Fig. S5A)
  IP1 Basal: 0.7169
Tet-On MRGPRX4 2pg/cell, No dox (Fig. S5A), read-out: IP1 Emax
  Emax: 72.3%
Tet-On MRGPRX4 2pg/cell, No dox (Fig. S5A), read-out: IP1 span
  Emax: 71.5%
Tet-On MRGPRX4, over 1pg/cell Normalized, Dox 13 ng/mL (Fig. S5C)
  IP1 Basal: -3.443
Tet-On MRGPRX4, over 1pg/cell Normalized, Dox 13 ng/mL (Fig. S5C), read-out: IP1 EC50
  EC50: 19 µM
Tet-On MRGPRX4, over 1pg/cell Normalized, Dox 13 ng/mL (Fig. S5C), read-out: IP1 Emax
  Emax: 59.2%
Tet-On MRGPRX4, over 1pg/cell Normalized, Dox 13 ng/mL (Fig. S5C), read-out: IP1 span
  Emax: 62.7%
Tet-On MRGPRX4, over 1pg/cell Normalized, Dox 40 ng/mL (Fig. S5C)
  IP1 Basal: -3.289
Tet-On MRGPRX4, over 1pg/cell Normalized, Dox 40 ng/mL (Fig. S5C), read-out: IP1 EC50
  EC50: 13.5 µM
Tet-On MRGPRX4, over 1pg/cell Normalized, Dox 40 ng/mL (Fig. S5C), read-out: IP1 Emax
  Emax: 63.5%
Tet-On MRGPRX4, over 1pg/cell Normalized, Dox 40 ng/mL (Fig. S5C), read-out: IP1 span
  Emax: 66.8%
Tet-On MRGPRX4, over 1pg/cell Normalized, Dox 1100 ng/mL (Fig. S5C)
  IP1 Basal: -2.284
Tet-On MRGPRX4, over 1pg/cell Normalized, Dox 1100 ng/mL (Fig. S5C), read-out: IP1 EC50
  EC50: 10.7 µM
Tet-On MRGPRX4, over 1pg/cell Normalized, Dox 1100 ng/mL (Fig. S5C), read-out: IP1 Emax
  Emax: 100%
Tet-On MRGPRX4, over 1pg/cell Normalized, Dox 1100 ng/mL (Fig. S5C), read-out: IP1 span
  Emax: 102%
[1]
  IP1 Basal: 3.818
  IP1 logEC50: -5.036
Tet-On MRGPRX4, over 1pg/cell Normalized, Dox 3300 ng/mL (Fig. S5C), read-out: IP1 EC50
  EC50: 9.2 µM
Tet-On MRGPRX4, over 1pg/cell Normalized, Dox 3300 ng/mL (Fig. S5C), read-out: IP1 Emax
  Emax: 111%
Tet-On MRGPRX4, over 1pg/cell Normalized, Dox 3300 ng/mL (Fig. S5C), read-out: IP1 span
  Emax: 107%
Tet-On MRGPRX4, over 1pg/cell Normalized, No dox (Fig. S5C)
  IP1 Basal: -1.726
Tet-On MRGPRX4, over 1pg/cell Normalized, No dox (Fig. S5C), read-out: IP1 Emax
  Emax: 55.6%
Tet-On MRGPRX4, over 1pg/cell Normalized, No dox (Fig. S5C), read-out: IP1 span
  Emax: 57.3%
Tet-On MRGPRX4:RAMP Ratio 1:0 (Fig. S5D-F)
  IP1 Basal: 8.926
Tet-On MRGPRX4:RAMP Ratio 1:0 (Fig. S5D-F), read-out: IP1 EC50
  EC50: 4.06 µM
Tet-On MRGPRX4:RAMP Ratio 1:0 (Fig. S5D-F), read-out: IP1 Emax
  Emax: 107%
Tet-On MRGPRX4:RAMP Ratio 1:0 (Fig. S5D-F), read-out: IP1 span
  Emax: 97.7%
Tet-On MRGPRX4:RAMP Ratio 1:0, no dox (Fig. S5D-F)
  IP1 Basal: 0.2822
Tet-On MRGPRX4:RAMP Ratio 1:0, no dox (Fig. S5D-F), read-out: IP1 Emax
  Emax: 2.46%
Tet-On MRGPRX4:RAMP Ratio 1:0, no dox (Fig. S5D-F), read-out: IP1 span
  Emax: 2.17%
Construct FLAG-MRGPRX4-1D4 (Fig. S4A-F)
  IP1 Basal: 6.903
Construct FLAG-MRGPRX4-1D4 (Fig. S4A-F), read-out: IP1 EC50
  EC50: 10.1 µM
Construct FLAG-MRGPRX4-1D4 (Fig. S4A-F), read-out: IP1 Emax
  Emax: 102%
Construct FLAG-MRGPRX4-1D4 (Fig. S4A-F), read-out: IP1 span
  Emax: 95.1%
Construct FLAG-MRGPRX4-GFP10-1D4 (Fig. S4A-F)
  IP1 Basal: 7.722
Construct FLAG-MRGPRX4-GFP10-1D4 (Fig. S4A-F), read-out: IP1 EC50
  EC50: 9.91 µM
Construct FLAG-MRGPRX4-GFP10-1D4 (Fig. S4A-F), read-out: IP1 Emax
  Emax: 110%
Construct FLAG-MRGPRX4-GFP10-1D4 (Fig. S4A-F), read-out: IP1 span
  Emax: 102%
Construct FLAG-NLuc-HT7-MRGPRX4-GFP10-1D4 (Fig. S4A-F)
  IP1 Basal: 8.575
Construct FLAG-NLuc-HT7-MRGPRX4-GFP10-1D4 (Fig. S4A-F), read-out: IP1 EC50
  EC50: 6.41 µM
Construct FLAG-NLuc-HT7-MRGPRX4-GFP10-1D4 (Fig. S4A-F), read-out: IP1 Emax
  Emax: 55.2%
Construct FLAG-NLuc-HT7-MRGPRX4-GFP10-1D4 (Fig. S4A-F), read-out: IP1 span
  Emax: 46.6%
Construct HA-MRGPRX4-1D4 (Fig. S4A-F)
  IP1 Basal: 13.13
Construct HA-MRGPRX4-1D4 (Fig. S4A-F), read-out: IP1 EC50
  EC50: 10.7 µM
Construct HA-MRGPRX4-1D4 (Fig. S4A-F), read-out: IP1 Emax
  Emax: 91.5%
Construct HA-MRGPRX4-1D4 (Fig. S4A-F), read-out: IP1 span
  Emax: 78.4%
Log [nateglinide] (M) -4, MRGPRX4 no dox
  IP1 accumulation (normalized): 1.452
Log [nateglinide] (M) -4.69897, MRGPRX4
  IP1 accumulation (normalized): 92.3953
Log [nateglinide] (M) -5.39794, MRGPRX4
  IP1 accumulation (normalized): 57.3306
Log [nateglinide] (M) -6.09691, MRGPRX4
  IP1 accumulation (normalized): 20.5565
Log [nateglinide] (M) -6.79588, MRGPRX4
  IP1 accumulation (normalized): 15.0154
Log [nateglinide] (M) -7.49485, MRGPRX4
  IP1 accumulation (normalized): 11.7498
